According to patent US11938129B2, “Methods and compositions for the treatment of vascular disease” (THE GENERAL HOSPITAL CORPORATION, priority 2018, dated 2024):

Tested on: PDGFR
Assay: immunofluorescence of p-PDGFR in ligated carotid
Format: in vivo, mouse
Conditions: media and intima of carotid arteries
Description: All mice used in this study were cared for under strict compliance with the Partners Institutional Animal Care and Use Committee (IACUC), regulated by the United States Public Health Service (USPHS). Carotid ligations were performed in 10 week old mice. Briefly, animals were anesthetized using intraperitoneal ketamine/xylazine (80 and 12 mg/kg, respectively) followed by a small incision in the neck to expose the carotid artery. Then the left carotid was ligated at the carotid bifurcation level using a 8-0 silk suture. At 21 days mice were sacrificed and carotids were collected for histological analysis. Approximately 98% of wild type mice developed stenotic lesions. Mice that developed thrombosis of the ligated carotid were excluded from the study (−1¬2%). Malatl knockout mice were kindly provided by Dr. David Spector (Cold Spring Harbor, N.Y.). Hdac9 flox/flox/Talgn-cre mice were generated as previously reported (10). […]
Left and right carotids were cryosectioned using OCT standard protocol and sectioning. […] Slides 1, 5, 10, and 15 were H&E stained for quantification of neointima. For quantification of the neointima, internal and external elastic lamina perimeters and medial thickness from 4 quadrants were measured and averaged using Image J software from the National Institutes of Health (NIH). […]

Compound: CCCc1cc(C)[nH]c(=O)c1CNC(=O)c1cc(-c2ccnc(N3CCN(C)CC3)c2)cc2c1cnn2C(C)C [GSK343]
- phosphorylation of PDGFR: dramatic reduction
